# From patent publication US20230346770A1 (priority 2020, published 2023)
# Assay: Phase 1 crossover drug-drug interaction study, plasma pharmacokinetics in healthy adults
# Conditions: for median tmax: both periods
# [1] = Treatment B (with clarithromycin), Period 1
# [2] = Treatment B (with clarithromycin), Period 2
structure (smiles),measurement,setting,value
CNCC[C@@](O)(c1cccc2ccccc12)[C@H](c1ccccc1)c1cc2cc(Br)ccc2nc1OC [M2],AUC72h higher in Period 2 as compared to Period 1,Treatment A,41%
same,AUC240h higher in Period 2 as compared to Period 1,Treatment A,46%
same,Cmax higher in Period 2 as compared to Period 1,Treatment A,36%
same,Cmax (mean),"Treatment A (single dose 100 mg bedaquiline alone), Period 1, n=8",12.0 ng/mL
same,Cmax (mean),"Treatment A (single dose 100 mg bedaquiline alone), Period 2, n=8",16.3 ng/mL
same,AUC72 h (mean),"Treatment A, Period 1",637 ng·h/mL
same,AUC240 h (mean),"Treatment A, Period 1",1839 ng·h/mL
same,"M/P ratio AUC72 h (M2/bedaquiline, corrected for molecular weight)","Treatment A, Period 1",0.0481
same,"M/P ratio AUC240 h (M2/bedaquiline, corrected for molecular weight)","Treatment A, Period 1",0.110
same,"M/P ratio Cmax (M2/bedaquiline, corrected for molecular weight)","Treatment A, Period 1",0.00936
same,tmax (median),"Treatment A, Period 1",12.00 h
same,AUC72 h (mean),"Treatment A, Period 2",898 ng·h/mL
same,AUC240 h (mean),"Treatment A, Period 2",2691 ng·h/mL
same,"M/P ratio AUC72 h (M2/bedaquiline, corrected for molecular weight)","Treatment A, Period 2",0.0670
same,"M/P ratio AUC240 h (M2/bedaquiline, corrected for molecular weight)","Treatment A, Period 2",0.141
same,"M/P ratio Cmax (M2/bedaquiline, corrected for molecular weight)","Treatment A, Period 2",0.0142
same,tmax (median),"Treatment A, Period 2",12.00 h
same,median tmax,Treatment A,12.00 h
same,AUC72h higher in Period 2 as compared to Period 1,Treatment B,2.1 fold
same,AUC240h higher in Period 2 as compared to Period 1,Treatment B,2.1 fold
same,Cmax higher in Period 2 as compared to Period 1,Treatment B,2.2 fold
same,Cmax (mean),"Treatment B (100 mg bedaquiline on Day 5 of clarithromycin 500 mg q12h Days 1-14), Period 1, n=8",4.66 ng/mL
same,Cmax (mean),"Treatment B (100 mg bedaquiline on Day 5 of clarithromycin 500 mg q12h Days 1-14), Period 2, n=8",9.89 ng/mL
same,AUC72 h (mean),[1],260 ng·h/mL
same,AUC240 h (mean),[1],886 ng·h/mL
same,"M/P ratio AUC72 h (M2/bedaquiline, corrected for molecular weight)",[1],0.0183
same,"M/P ratio AUC240 h (M2/bedaquiline, corrected for molecular weight)",[1],0.0460
same,"M/P ratio Cmax (M2/bedaquiline, corrected for molecular weight)",[1],0.0039
same,tmax (median),[1],35.92 h
same,AUC72 h (mean),[2],543 ng·h/mL
same,AUC240 h (mean),[2],1884 ng·h/mL
same,"M/P ratio AUC72 h (M2/bedaquiline, corrected for molecular weight)",[2],0.0347
same,"M/P ratio AUC240 h (M2/bedaquiline, corrected for molecular weight)",[2],0.0881
same,"M/P ratio Cmax (M2/bedaquiline, corrected for molecular weight)",[2],0.00798
same,tmax (median),[2],23.90 h
same,median tmax,Treatment B (with clarithromycin),23.91 h
same,reduction of AUC72h with clarithromycin co-administration,Treatment B vs Treatment A,51%
same,reduction of AUC240h with clarithromycin co-administration,Treatment B vs Treatment A,42%
same,reduction of Cmax with clarithromycin co-administration,Treatment B vs Treatment A,52%
same,reduction of M/P ratio AUC72h with clarithromycin co-administration,Treatment B vs Treatment A,56%
same,reduction of M/P ratio AUC240h with clarithromycin co-administration,Treatment B vs Treatment A,49%
same,reduction of M/P ratio Cmax with clarithromycin co-administration,Treatment B vs Treatment A,52%
same,time of maximum mean plasma concentration,both treatment groups,12 hours post-dose
same,plasma concentration quantifiable until,both treatments,240 hours post-dose
same,pre-dose plasma concentration in Period 2 relative to Cmax after the Period 2 single dose,prior to the Period 2 single dose of bedaquiline (carry-over),> 10%
